Experimental data published in publication PMC9262584 (2022).

How the values were obtained:
[1] = test system: Cd1^83 (RNA, riboswitch) GGAAACUAAAUAGGCAAAUCUAGAGAAAUCUAGUGACGCAAAGCUAUAGGGACUAAGGUUUAUAUACAUAAACUAUGUCAGCCAG; assay: ITC; conditions: 120 mM NaCl, 8 mM MgCl2 (RNA wash buffer); 50 mM Bis-Tris pH 6.1; individual ITC conditions in SI Figures S11/S12
[2] = test system: Cd1^147 (RNA, riboswitch) GGAAACUAAAUAGGCAAAUCUAGAGAAAUCUAGUGACGCAAAGCUAUAGGGACUAAGGUUUAUAUACAUAAACUAUGUCAGCCAGUUGCCAAAAAGAGUCCUAGGUGUAUUGUAUACCUAAGAAAAGUCUAUAAUGACUGCCUUUUUGG; assay: 2D 1H/15N correlation NMR; conditions: 110 mM NaCl, MgCl2 at 40 equiv. over RNA; 50 mM Bis-Tris, 5-10% D2O
[3] = test system: Cd1^148 (RNA, riboswitch) GGAAACUAAAUAGGCAAAUCUAGAGAAAUCUAGUGACGCAAAGCUAUAGGGACUAAGGUUUAUAUACAUAAACUAUGUCAGCCAGUUGCCAAAAAGAGUCCUAGGUGUAUUGUAUACCUAAGAAAAGUCUAUAAUGACUGCCUUUUUGGC; assay: 2D 1H/15N correlation NMR; conditions: 110 mM NaCl, MgCl2 at 40 equiv. over RNA; 50 mM Bis-Tris, 5-10% D2O
[4] = test system: Cd1^88 (RNA, riboswitch) GGAAACUAAAUAGGCAAAUCUAGAGAAAUCUAGUGACGCAAAGCUAUAGGGACUAAGGUUUAUAUACAUAAACUAUGUCAGCCAGUUGCC; assay: ITC; conditions: 120 mM NaCl, 8 mM MgCl2 (RNA wash buffer); 50 mM Bis-Tris pH 6.1; individual ITC conditions in SI Figures S11/S12
[5] = test system: Cd1^146 (RNA, riboswitch) GGAAACUAAAUAGGCAAAUCUAGAGAAAUCUAGUGACGCAAAGCUAUAGGGACUAAGGUUUAUAUACAUAAACUAUGUCAGCCAGUUGCCAAAAAGAGUCCUAGGUGUAUUGUAUACCUAAGAAAAGUCUAUAAUGACUGCCUUUUUG; assay: ITC; conditions: 120 mM NaCl, 8 mM MgCl2 (RNA wash buffer); 50 mM Bis-Tris pH 6.1; individual ITC conditions in SI Figures S11/S12
[6] = test system: Cd1^88 G11A (RNA, riboswitch) GGAAACUAAAUAAGCAAAUCUAGAGAAAUCUAGUGACGCAAAGCUAUAGGGACUAAGGUUUAUAUACAUAAACUAUGUCAGCCAGUUGCC; assay: 1H NMR reporter peaks; conditions: 110 mM NaCl, MgCl2 at 40 equiv. over RNA; 50 mM Bis-Tris, 5-10% D2O
[7] = test system: Cd1^86 (RNA, riboswitch) GGAAACUAAAUAGGCAAAUCUAGAGAAAUCUAGUGACGCAAAGCUAUAGGGACUAAGGUUUAUAUACAUAAACUAUGUCAGCCAGUUG; assay: ITC; conditions: 120 mM NaCl, 8 mM MgCl2 (RNA wash buffer); 50 mM Bis-Tris pH 6.1; individual ITC conditions in SI Figures S11/S12
[8] = test system: Cd1^88 A24-26U (RNA, riboswitch) GGAAACUAAAUAGGCAAAUCUAGAGUUUUCUAGUGACGCAAAGCUAUAGGGACUAAGGUUUAUAUACAUAAACUAUGUCAGCCAGUUGCC; assay: 1H NMR reporter peaks; conditions: 110 mM NaCl, MgCl2 at 40 equiv. over RNA; 50 mM Bis-Tris, 5-10% D2O
[9] = test system: Cd1^88 G11C (RNA, riboswitch) GGAAACUAAAUACGCAAAUCUAGAGAAAUCUAGUGACGCAAAGCUAUAGGGACUAAGGUUUAUAUACAUAAACUAUGUCAGCCAGUUGCC; assay: 1H NMR reporter peaks; conditions: 110 mM NaCl, MgCl2 at 40 equiv. over RNA; 50 mM Bis-Tris, 5-10% D2O
[10] = test system: Cd1^87 (RNA, riboswitch) GGAAACUAAAUAGGCAAAUCUAGAGAAAUCUAGUGACGCAAAGCUAUAGGGACUAAGGUUUAUAUACAUAAACUAUGUCAGCCAGUUGC; assay: ITC; conditions: 120 mM NaCl, 8 mM MgCl2 (RNA wash buffer); 50 mM Bis-Tris pH 6.1; individual ITC conditions in SI Figures S11/S12
[11] = test system: Cd1^82 (RNA, riboswitch) GGAAACUAAAUAGGCAAAUCUAGAGAAAUCUAGUGACGCAAAGCUAUAGGGACUAAGGUUUAUAUACAUAAACUAUGUCAGCCA; assay: 1H NMR reporter peaks; conditions: 110 mM NaCl, MgCl2 at 40 equiv. over RNA; 50 mM Bis-Tris, 5-10% D2O
[12] = test system: Cd1^80 (RNA, riboswitch) GGAAACUAAAUAGGCAAAUCUAGAGAAAUCUAGUGACGCAAAGCUAUAGGGACUAAGGUUUAUAUACAUAAACUAUGUCAGC; assay: 1H NMR reporter peaks; conditions: 110 mM NaCl, MgCl2 at 40 equiv. over RNA; 50 mM Bis-Tris, 5-10% D2O
[13] = test system: Cd1^149 (RNA, riboswitch) GGAAACUAAAUAGGCAAAUCUAGAGAAAUCUAGUGACGCAAAGCUAUAGGGACUAAGGUUUAUAUACAUAAACUAUGUCAGCCAGUUGCCAAAAAGAGUCCUAGGUGUAUUGUAUACCUAAGAAAAGUCUAUAAUGACUGCCUUUUUGGCA; assay: 2D 1H/15N correlation NMR; conditions: 110 mM NaCl, MgCl2 at 40 equiv. over RNA; 50 mM Bis-Tris, 5-10% D2O
[14] = test system: Cd1^135 (RNA, riboswitch) GGAAACUAAAUAGGCAAAUCUAGAGAAAUCUAGUGACGCAAAGCUAUAGGGACUAAGGUUUAUAUACAUAAACUAUGUCAGCCAGUUGCCAAAAAGAGUCCUAGGUGUAUUGUAUACCUAAGAAAAGUCUAUAAUGA; assay: ITC; conditions: 120 mM NaCl, 8 mM MgCl2 (RNA wash buffer); 50 mM Bis-Tris pH 6.1; individual ITC conditions in SI Figures S11/S12
[15] = test system: Cd1^88 C81A (RNA, riboswitch) GGAAACUAAAUAGGCAAAUCUAGAGAAAUCUAGUGACGCAAAGCUAUAGGGACUAAGGUUUAUAUACAUAAACUAUGUCAGCAAGUUGCC; assay: 1H NMR reporter peaks; conditions: 110 mM NaCl, MgCl2 at 40 equiv. over RNA; 50 mM Bis-Tris, 5-10% D2O
[16] = test system: Cd1^81 (RNA, riboswitch) GGAAACUAAAUAGGCAAAUCUAGAGAAAUCUAGUGACGCAAAGCUAUAGGGACUAAGGUUUAUAUACAUAAACUAUGUCAGCC; assay: 1H NMR reporter peaks; conditions: 110 mM NaCl, MgCl2 at 40 equiv. over RNA; 50 mM Bis-Tris, 5-10% D2O
[17] = test system: Cd1^88 C88A (RNA, riboswitch) GGAAACUAAAUAGGCAAAUCUAGAGAAAUCUAGUGACGCAAAGCUAUAGGGACUAAGGUUUAUAUACAUAAACUAUGUCAGCCAGUUGCA; assay: 1H NMR reporter peaks; conditions: 110 mM NaCl, MgCl2 at 40 equiv. over RNA; 50 mM Bis-Tris, 5-10% D2O
[18] = test system: Cd1^88 C87A (RNA, riboswitch) GGAAACUAAAUAGGCAAAUCUAGAGAAAUCUAGUGACGCAAAGCUAUAGGGACUAAGGUUUAUAUACAUAAACUAUGUCAGCCAGUUGAC; assay: 1H NMR reporter peaks; conditions: 110 mM NaCl, MgCl2 at 40 equiv. over RNA; 50 mM Bis-Tris, 5-10% D2O

KD [1]: > >100 μM | binding [2]: yes | binding [3]: no | KD [4]: 250 ± 40 nM | KD [5]: 7000 ± 2000 nM | binding [6]: yes | KD [7]: 35000 ± 10000 nM | binding [8]: no | binding [9]: yes | KD [10]: 1900 ± 100 nM | binding [11]: no | binding [12]: no | binding [13]: no | KD [14]: 600 ± 30 nM | binding [15]: no | binding [16]: no | binding [17]: yes | binding [18]: weak
SMILES: Nc1nc2c(ncn2[C@@H]2O[C@@H]3COP(=O)(O)O[C@H]4[C@@H](O)[C@H](n5cnc6c(=O)[nH]c(N)nc65)O[C@@H]4COP(=O)(O)O[C@H]3[C@H]2O)c(=O)[nH]1
